Measurements as given in ChEMBL document CHEMBL1201862, “PubChem BioAssay data set” (2004).
The source made the active and inactive calls.

Experiments:
[1] = HEp-2 cell cytotoxicity, dose response, cytotoxicity control for RSV inhibitor project, HTS (AID 2410); format: functional; conditions: human respiratory syncytial virus
[2] = microbe, parasite or virus in culture; format: functional; conditions: Mycobacterium tuberculosis
[3] = target: T1, Corticotropin-releasing factor receptor 2/Corticotropin-releasing factor-binding protein (Homo sapiens, UniProt P24387+Q13324); test: activators of CRF receptor 2 with binding protein – uHTS hits, confirmation (AID 602473); format: functional; conditions: read-out: EC50_Mean
T1 sequence (Q13324 whole entry): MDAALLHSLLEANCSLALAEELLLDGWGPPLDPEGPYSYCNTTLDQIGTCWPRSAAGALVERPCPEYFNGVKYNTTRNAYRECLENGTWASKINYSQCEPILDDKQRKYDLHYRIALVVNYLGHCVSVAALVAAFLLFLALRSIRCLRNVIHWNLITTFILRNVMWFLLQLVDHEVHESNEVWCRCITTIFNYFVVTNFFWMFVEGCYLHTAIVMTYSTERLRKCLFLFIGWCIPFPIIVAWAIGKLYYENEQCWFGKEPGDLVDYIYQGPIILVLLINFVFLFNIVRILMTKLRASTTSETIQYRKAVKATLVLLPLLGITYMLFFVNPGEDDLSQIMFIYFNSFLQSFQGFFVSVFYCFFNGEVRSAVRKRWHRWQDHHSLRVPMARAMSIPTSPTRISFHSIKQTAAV
T1 sequence (P24387 whole entry): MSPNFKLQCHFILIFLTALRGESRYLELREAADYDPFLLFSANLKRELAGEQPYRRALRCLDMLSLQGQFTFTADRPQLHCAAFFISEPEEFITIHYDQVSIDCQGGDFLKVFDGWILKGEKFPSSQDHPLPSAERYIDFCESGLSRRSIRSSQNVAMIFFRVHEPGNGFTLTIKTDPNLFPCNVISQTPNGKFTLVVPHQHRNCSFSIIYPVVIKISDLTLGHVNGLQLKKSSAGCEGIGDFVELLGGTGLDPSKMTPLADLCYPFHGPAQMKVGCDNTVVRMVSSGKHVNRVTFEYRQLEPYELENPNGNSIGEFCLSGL

[4] = target: Luciferin 4-monooxygenase (Photinus pyralis, UniProt P08659); test: firefly luciferase enzyme inhibitors, dose response, biochemical, luminescence (AID 1891)
Luciferin 4-monooxygenase, sequence (P08659 whole entry): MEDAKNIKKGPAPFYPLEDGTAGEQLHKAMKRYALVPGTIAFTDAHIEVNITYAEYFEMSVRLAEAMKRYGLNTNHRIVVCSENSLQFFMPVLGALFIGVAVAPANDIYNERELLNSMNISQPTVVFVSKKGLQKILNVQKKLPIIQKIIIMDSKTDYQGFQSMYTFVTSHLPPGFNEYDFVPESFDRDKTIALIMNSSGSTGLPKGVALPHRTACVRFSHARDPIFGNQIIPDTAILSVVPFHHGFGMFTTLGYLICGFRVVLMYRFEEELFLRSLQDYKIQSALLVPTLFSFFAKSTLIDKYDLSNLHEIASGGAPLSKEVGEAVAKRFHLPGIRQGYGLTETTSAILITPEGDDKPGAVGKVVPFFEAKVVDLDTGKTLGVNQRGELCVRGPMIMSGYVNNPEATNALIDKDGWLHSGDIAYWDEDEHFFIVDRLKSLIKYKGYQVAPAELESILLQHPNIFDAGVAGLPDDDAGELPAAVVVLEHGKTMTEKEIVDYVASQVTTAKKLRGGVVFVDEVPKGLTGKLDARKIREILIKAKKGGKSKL

[5] = Luminescence Cell-Based Dose Confirmation HTS to Identify Inhibitors of Platelet Dense Granule Release. [Related pubchem assays: 1663 (Primary HTS), 1678 (Summary of Project)]; format: functional
[6] = inhibitors of firefly luciferase expression or activity, dose response, H4 neuroglioma cells, luminescence (AID 1990); format: functional, cell-based
[7] = Luminescence Cell-Based Dose Response HTS to Identify Inhibitors of 5'UTR Stem-Loop Driven Prion Protein mRNA Translation in H4 Neuroglioblastoma Cells. [Related pubchem assays: 1827 (Project Summary), 1813 (Primary HTS)]; format: functional
[8] = inhibitors of SNCA 5'UTR-driven reporter translation, confirmation, H4 neuroglioma cells, luminescence (AID 1988); format: functional, cell-based
[9] = inhibitors of intracellular T. cruzi replication, confirmation, NIH3T3 host cells, beta-gal luminescence (AID 2044); format: functional, cell-based;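 further: intracellular parasites grown in NIH/3T3 mouse fibroblasts as host cells; luminescent beta-galactosidase reporter signal from transgenic T. cruzi replicating inside host cells; inhibitors lower the luminescence signal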
[10] = cytotoxicity toward NIH3T3 fibroblasts, dose response, counter-screen, cell-based, ATP luminescence, mouse fibroblasts (AID 2010); format: functional;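 further: cells exposed to compound for about 90 hours before reading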
[11] = Luminescence Cell-Based Dose Retest to Confirm Inhibitors of Cancer Stem Cells. [Related pubchem assays (depositor defined):AID2717, AID2721]; format: functional; conditions: Homo sapiens
[12] = target: T2, Replicative DNA helicase DnaB (Mycobacterium tuberculosis, UniProt P9WMR3); test: DnaB intein splicing inhibitors, dose response, biochemical, cell-free fluorescence (AID 449749); format: functional
T2 sequence (P9WMR3 whole entry): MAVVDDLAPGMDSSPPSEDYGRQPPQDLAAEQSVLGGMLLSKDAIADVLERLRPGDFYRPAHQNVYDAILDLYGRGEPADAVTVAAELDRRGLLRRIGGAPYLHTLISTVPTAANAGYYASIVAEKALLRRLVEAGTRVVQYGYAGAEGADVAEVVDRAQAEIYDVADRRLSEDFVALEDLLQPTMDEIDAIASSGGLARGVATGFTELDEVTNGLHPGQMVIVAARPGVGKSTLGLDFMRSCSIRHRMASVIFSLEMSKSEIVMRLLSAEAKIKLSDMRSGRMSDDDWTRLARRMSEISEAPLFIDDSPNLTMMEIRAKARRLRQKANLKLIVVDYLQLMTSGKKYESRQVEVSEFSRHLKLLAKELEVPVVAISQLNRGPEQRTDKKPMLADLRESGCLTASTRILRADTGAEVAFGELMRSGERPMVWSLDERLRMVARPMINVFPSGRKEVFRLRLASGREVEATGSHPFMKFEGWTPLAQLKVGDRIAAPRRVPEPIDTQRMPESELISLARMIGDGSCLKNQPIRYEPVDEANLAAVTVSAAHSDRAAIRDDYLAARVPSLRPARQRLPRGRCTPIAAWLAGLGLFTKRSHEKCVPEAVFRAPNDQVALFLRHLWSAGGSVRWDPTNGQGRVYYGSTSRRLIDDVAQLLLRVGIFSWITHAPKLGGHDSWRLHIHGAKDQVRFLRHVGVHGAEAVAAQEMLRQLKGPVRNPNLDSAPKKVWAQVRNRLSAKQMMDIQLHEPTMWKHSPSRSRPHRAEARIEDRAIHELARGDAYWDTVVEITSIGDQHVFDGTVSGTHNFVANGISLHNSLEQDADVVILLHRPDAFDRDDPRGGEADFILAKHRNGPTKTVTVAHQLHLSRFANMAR

Protein RecA = target: T3, Protein RecA (Mycobacterium tuberculosis, UniProt P9WHJ3); test: Fluorescence Cell-Free Homogeneous Dose Retest to Identify Inhibitors of RecA-Intein Splicing Activity. [Related pubchem assays (depositor defined):AID2097, AID2223, AID489010, AID492950]; format: functional
T3 sequence (P9WHJ3 whole entry): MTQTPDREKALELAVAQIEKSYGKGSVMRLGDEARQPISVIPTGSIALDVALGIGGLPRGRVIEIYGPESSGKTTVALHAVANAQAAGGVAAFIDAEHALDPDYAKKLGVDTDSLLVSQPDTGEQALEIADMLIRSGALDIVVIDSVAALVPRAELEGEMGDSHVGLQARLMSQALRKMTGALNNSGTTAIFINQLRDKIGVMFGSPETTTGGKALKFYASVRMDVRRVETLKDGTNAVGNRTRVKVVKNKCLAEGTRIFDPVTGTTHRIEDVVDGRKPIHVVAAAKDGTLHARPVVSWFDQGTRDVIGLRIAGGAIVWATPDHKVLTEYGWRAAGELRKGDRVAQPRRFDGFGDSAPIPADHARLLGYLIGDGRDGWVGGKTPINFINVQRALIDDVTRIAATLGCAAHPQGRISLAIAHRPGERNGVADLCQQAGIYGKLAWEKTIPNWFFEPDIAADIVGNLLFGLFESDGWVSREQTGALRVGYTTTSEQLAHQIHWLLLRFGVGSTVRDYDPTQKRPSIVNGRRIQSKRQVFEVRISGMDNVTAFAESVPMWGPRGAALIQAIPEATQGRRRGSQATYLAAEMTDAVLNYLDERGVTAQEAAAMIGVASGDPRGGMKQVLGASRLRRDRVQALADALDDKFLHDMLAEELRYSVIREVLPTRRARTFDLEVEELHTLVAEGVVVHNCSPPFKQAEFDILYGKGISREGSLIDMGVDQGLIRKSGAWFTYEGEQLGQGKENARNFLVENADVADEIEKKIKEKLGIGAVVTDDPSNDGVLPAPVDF

INS1 = test: beta cell apoptosis inhibitors, cytokine rescue, dose response, luminescence, retest (AID 449756); format: functional, cell-based; conditions: Rattus norvegicus;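 further: cell death triggered by IL-1 beta plus TNF-alpha plus IFN-gamma mixture; protective hits raise ATP signal compared with cytokine alone wells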
[13] = target: T4, Rac GTPase-activating protein 1 (Homo sapiens, UniProt Q9H0H5); test: MgcRacGAP GTPase-activating activity inhibitors, confirmation, biochemical, ADP Hunter fluorescence, primary and confirmatory (AID 624330); format: functional
T4 sequence (Q9H0H5 whole entry): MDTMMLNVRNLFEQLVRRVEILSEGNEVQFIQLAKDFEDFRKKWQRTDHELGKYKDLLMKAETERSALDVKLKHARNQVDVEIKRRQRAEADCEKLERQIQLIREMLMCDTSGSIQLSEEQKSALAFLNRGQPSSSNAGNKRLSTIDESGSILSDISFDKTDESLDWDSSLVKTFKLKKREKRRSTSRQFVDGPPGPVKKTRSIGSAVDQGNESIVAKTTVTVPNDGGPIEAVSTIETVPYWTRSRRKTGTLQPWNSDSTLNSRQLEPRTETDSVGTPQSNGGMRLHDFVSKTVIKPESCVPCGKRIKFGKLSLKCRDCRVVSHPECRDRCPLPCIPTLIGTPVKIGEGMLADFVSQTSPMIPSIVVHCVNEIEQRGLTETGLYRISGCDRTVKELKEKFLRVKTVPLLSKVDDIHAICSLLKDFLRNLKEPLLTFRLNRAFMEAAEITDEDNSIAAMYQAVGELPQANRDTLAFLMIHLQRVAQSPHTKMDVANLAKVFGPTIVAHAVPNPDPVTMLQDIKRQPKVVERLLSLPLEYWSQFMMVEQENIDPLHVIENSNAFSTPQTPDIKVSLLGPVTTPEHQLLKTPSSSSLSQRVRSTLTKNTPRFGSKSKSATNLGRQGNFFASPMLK

[14] = target: T5, Heat shock factor protein 1 (Mus musculus, UniProt P38532); test: HSF1 potentiators in luciferase reporter cells, confirmation, cell-based, NIH3T3, luminescence, dose retest (AID 435004); format: functional;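 further: stress induced by proteasome inhibitor MG132 added 30 min after compound; luciferase reporter driven by HSF1 response element in NIH3T3 cells; actives raise luminescence as potentiators of the MG132 stress response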
T5 sequence (P38532 whole entry): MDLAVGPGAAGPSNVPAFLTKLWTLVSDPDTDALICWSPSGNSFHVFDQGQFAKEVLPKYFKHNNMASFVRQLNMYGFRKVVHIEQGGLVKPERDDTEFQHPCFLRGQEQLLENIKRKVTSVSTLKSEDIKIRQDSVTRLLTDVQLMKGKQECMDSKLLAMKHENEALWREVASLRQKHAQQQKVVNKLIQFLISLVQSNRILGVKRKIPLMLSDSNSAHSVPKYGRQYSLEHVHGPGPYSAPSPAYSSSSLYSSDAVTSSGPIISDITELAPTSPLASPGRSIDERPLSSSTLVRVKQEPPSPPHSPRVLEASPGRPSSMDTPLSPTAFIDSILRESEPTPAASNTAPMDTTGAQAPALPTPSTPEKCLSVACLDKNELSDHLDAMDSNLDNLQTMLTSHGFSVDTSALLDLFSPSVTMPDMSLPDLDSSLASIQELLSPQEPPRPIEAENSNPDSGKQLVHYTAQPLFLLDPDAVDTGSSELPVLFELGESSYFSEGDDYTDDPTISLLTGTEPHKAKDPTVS

## COc1ccc(-c2oc3cccnc3c2C#CCO)cc1
[1]
  CC50: > 50 µM (active)

## CC1(C)CC(=O)C2=C(C1)N=C(Nc1nc3ccccc3o1)NC2c1ccccn1 (stereo not given)
[2]
  CC50: > 40 µM (active)

## Cc1[nH]c2ccccc2c1N=Nc1ccccc1F
[1]
  CC50: 18 µM (active)

## CCc1ccccc1N(CC)C(=O)C1CCN(c2ncnc3c2nc2n3CCCCC2)CC1
[1]
  CC50: 17.2 µM (active)

## COC(=O)c1ccc(CSc2nc3ccccc3[nH]2)o1
[1]
  CC50: > 50 µM (active)

## O=S(=O)(c1ccccc1)N1CCCC(c2nc(O)c3nnn(Cc4ccccc4Br)c3n2)C1 (stereo not given)
[1]
  CC50: 18.2 µM (active)

## O=C1C=C(c2ccccc2)C(c2ccccc2)C1O (stereo not given)
[3]
  EC50: > 53 µM (inactive)

## CC1=[N+]([O-])C(C)(C)N(O)C1(C)C
[4]
  EC50: > 112 µM (not active)
[5]
  EC50: > 112 µM (not active)
[3]
  EC50: > 53 µM (inactive)

## CN(C)c1nc(NCc2ccccc2)nc(N/N=C/c2ccc3c(c2)OCO3)n1
[2]
  CC50: > 40 µM (active)

## O=C(Oc1ccccc1-c1nnco1)c1ccc(Cl)cc1
[2]
  CC50: 21.8 µM (active)

## Cn1c(=O)c(C(=O)COC(=O)c2cc(C(F)(F)F)nc3c(C(F)(F)F)cccc23)c(N)n(CC2CC2)c1=O
[2]
  CC50: > 40 µM (active)

## CCn1nc(C)c(C(=O)Nc2cc(Oc3cc(C)cc(C)c3)cc([N+](=O)[O-])c2)c1C
[2]
  CC50: 22.7 µM (active)

## CN=C(S)NNC(=O)c1ccc(N(C)C)cc1
[1]
  CC50: > 50 µM (active)

## Cc1ccccc1C(=O)NC(=S)Nc1sc2c(c1C#N)CCC(C)C2 (stereo not given)
[1]
  CC50: 36.8 µM (active)

## Cc1ccc(-n2nc(C)c3c(C)c(CCC(=O)Nc4ccc(CN5CCCC5)cc4)c(C)nc32)cc1
[6]
  EC50: 9.39 µM (active)
[7]
  EC50: > 120 µM (not active)
[8]
  EC50: 8.22 µM (active)
[9]
  EC50: 1.76 µM (active)
[2]
  CC50: 8.7 µM (active)
[10]
  EC50: > 60 µM (not active)
[11]
  AC50: 5.7 µM (active)

## Oc1c(/C=N/Cc2ccc(F)cc2)[nH]c2ccc(Br)c(Cl)c12
[1]
  CC50: 29.1 µM (active)
[12]
  AC50: 61.8 µM (active)
Protein RecA
  EC50: 2.44 µM (active)

## O=C1/C(=C/c2ccc(O)cc2)SC(=S)N1Cc1cccnc1
[3]
  EC50: 12.9 µM (active)

## CCN(CC)c1ccc(/N=C/c2ccccc2[N+](=O)[O-])cc1
INS1
  AC50: 33.2 µM (active)
[13]
  IC50: 30.5 µM (active)

## CCOc1ccc(-n2c(SCc3cc(=O)oc4cc(C)c(C(C)C)cc34)nnc2-c2cccnc2)cc1
[1]
  CC50: 17.5 µM (active)

## O=C(c1ccco1)c1coc2c1cc(O)c1ccccc12
[14]
  EC50: 65.4 µM (active)
[12]
  AC50: 16.2 µM (active)
Protein RecA
  EC50: 48.7 µM (active)
INS1
  AC50: 27 µM (active)

## c1coc(CNc2c3c(nc4ncnn24)CCC3)c1
[1]
  CC50: 40.5 µM (active)
